What was measured:
[1] = test system: normal NK cells expanded with K562-aAPC; assay: percent inhibition of viability; higher = more inhibition; settings: 72 h, IL-2 2.5 ng/mL
Procedure: (§1)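 Drug sensitivity and resistance testing on K562-aAPC-expanded normal NK cells: 5 concentrations (10-fold steps over a 10,000-fold range), 72 h at 37 °C, viability by CellTiter-Glo normalised to DMSO and benzethonium chloride controls; DSS from the fitted curve.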

NKL (IL-2 2.5 ng/mL) [2] = assay: drug sensitivity score (DSS) (DSS units); higher = more sensitive; extreme values may be limits of the assay; settings: 72 h
NK-YS (IL-2 2.5 ng/mL) [3] = assay: as above; settings: 72 h
[4] = test system: normal primary NK cells, pool 1 (3 donors) (IL-2 2.5 ng/mL); assay: as above; settings: 72 h
DERL-7 (IL-2 2.5 ng/mL) [5] = assay: as above; settings: 72 h
[6] = test system: normal primary NK cells, pool 2 (3 donors) (IL-2 2.5 ng/mL); assay: as above; settings: 72 h
[7] = test system: normal primary NK cells, pool 3 (3 donors) (IL-2 2.5 ng/mL); assay: as above; settings: 72 h
[8] = test system: normal primary NK cells, pool 1 (3 donors), resting (IL-2 0 ng/mL); assay: as above; settings: 72 h
KAI3 (IL-2 2.5 ng/mL) [9] = assay: as above; settings: 72 h
YT (IL-2 2.5 ng/mL) [10] = assay: as above; settings: 72 h
SNK-6 (IL-2 2.5 ng/mL) [11] = assay: as above; settings: 72 h
KHYG-1 (IL-2 2.5 ng/mL) [12] = assay: as above; settings: 72 h
NK-92 (IL-2 2.5 ng/mL) [13] = assay: as above; settings: 72 h
IMC-1 (IL-2 20 ng/mL) [14] = assay: as above; settings: 72 h
NKL (IL-2 2.5 ng/mL) [15] = assay: percent inhibition of viability; higher = more inhibition; settings: 72 h
NK-YS (IL-2 2.5 ng/mL) [16] = assay: as above; settings: 72 h
[17] = test system: normal primary NK cells, pool 1 (3 donors) (IL-2 2.5 ng/mL); assay: as above; settings: 72 h
DERL-7 (IL-2 2.5 ng/mL) [18] = assay: as above; settings: 72 h
[19] = test system: normal primary NK cells, pool 2 (3 donors) (IL-2 2.5 ng/mL); assay: as above; settings: 72 h
[20] = test system: normal primary NK cells, pool 3 (3 donors) (IL-2 2.5 ng/mL); assay: as above; settings: 72 h
[21] = test system: normal primary NK cells, pool 1 (3 donors), resting (IL-2 0 ng/mL); assay: as above; settings: 72 h
KAI3 (IL-2 2.5 ng/mL) [22] = assay: as above; settings: 72 h
YT (IL-2 2.5 ng/mL) [23] = assay: as above; settings: 72 h
SNK-6 (IL-2 2.5 ng/mL) [24] = assay: as above; settings: 72 h
KHYG-1 (IL-2 2.5 ng/mL) [25] = assay: as above; settings: 72 h
NK-92 (IL-2 2.5 ng/mL) [26] = assay: as above; settings: 72 h
IMC-1 (IL-2 20 ng/mL) [27] = assay: as above; settings: 72 h
[28] = test system: normal NK cells expanded with K562-aAPC; assay: drug sensitivity score (DSS) (DSS units); higher = more sensitive; extreme values may be limits of the assay; settings: 72 h; IL-2 2.5 ng/mL
Procedure: as §1

COc1c(C)cnc(Cn2cnc3c(Cl)nc(N)nc32)c1C [BIIB021] (max concentration tested 10000 nM)
percent inhibition of viability [%]
Settings | 1 nM | 10 nM | 100 nM | 1000 nM | 10000 nM
DERL-7 (IL-2 2.5 ng/mL) [18] | 2.38 | 6.56 | 62.9 | 99.9 | 101
IMC-1 (IL-2 20 ng/mL) [27] | 1.18 | -3.95 | 26.6 | 99.6 | 101
KAI3 (IL-2 2.5 ng/mL) [22] | -2.5 | 4.1 | 75.8 | 98.8 | 102
KHYG-1 (IL-2 2.5 ng/mL) [25] | -2.8 | -2.89 | 77.1 | 99.3 | 104
NK-92 (IL-2 2.5 ng/mL) [26] | -8.24 | -13.2 | 51.8 | 95.9 | 101
NK-YS (IL-2 2.5 ng/mL) [16] | 0.34 | 0.63 | 61.5 | 97.2 | 102
NKL (IL-2 2.5 ng/mL) [15] | -6.72 | -10.3 | 45.6 | 85.8 | 86.2
SNK-6 (IL-2 2.5 ng/mL) [24] | 19 | -3.8 | 92.6 | 91 | 90.3
YT (IL-2 2.5 ng/mL) [23] | -3.19 | -0.41 | 48.3 | 90.5 | 94.5
[1] | -1.27 | -2.67 | 62.1 | 98.6 | 100
[17] | -3.67 | 7.97 | 27.8 | 79 | 88
[19] | -9.44 | -10.5 | 39.7 | 81.5 | 83.5
[20] | -13.8 | -15 | 16.2 | 78.9 | 87.8
[21] | 15.4 | 12.6 | 10.4 | 36.1 | 51

Settings | drug sensitivity score
DERL-7 (IL-2 2.5 ng/mL) [5] | 25.7
IMC-1 (IL-2 20 ng/mL) [14] | 22
KAI3 (IL-2 2.5 ng/mL) [9] | 27.3
KHYG-1 (IL-2 2.5 ng/mL) [12] | 26.8
NK-92 (IL-2 2.5 ng/mL) [13] | 24.4
NK-YS (IL-2 2.5 ng/mL) [3] | 25.3
NKL (IL-2 2.5 ng/mL) [2] | 21.3
SNK-6 (IL-2 2.5 ng/mL) [11] | 28
YT (IL-2 2.5 ng/mL) [10] | 22.8
[4] | 17.8
[6] | 20.3
[7] | 16.6
[8] | 8.4
[28] | 25.3

O=C(Nc1cccc(Nc2ncc(Br)c(NCCc3cnc[nH]3)n2)c1)N1CCCC1 [BX-912] (max concentration tested 10000 nM)
percent inhibition of viability [%]
Settings | 1 nM | 10 nM | 100 nM | 1000 nM | 10000 nM
DERL-7 (IL-2 2.5 ng/mL) [18] | 2.87 | -0.14 | -7.54 | 46.5 | 100
IMC-1 (IL-2 20 ng/mL) [27] | -2.34 | -6.68 | 1.1 | 67.4 | 100
KAI3 (IL-2 2.5 ng/mL) [22] | 4.7 | 2.59 | 15.4 | 62.1 | 91.9
KHYG-1 (IL-2 2.5 ng/mL) [25] | 2.7 | 1.66 | 7.53 | 73.7 | 99.5
NK-92 (IL-2 2.5 ng/mL) [26] | -9.43 | -1.33 | -2.11 | 29.9 | 73.8
NK-YS (IL-2 2.5 ng/mL) [16] | -1.46 | -2.48 | 3.48 | 12.5 | 71
NKL (IL-2 2.5 ng/mL) [15] | -14.9 | -11.4 | 13.4 | 37.6 | 82.2
SNK-6 (IL-2 2.5 ng/mL) [24] | -3.93 | -10.2 | -7.12 | 74.4 | 84.7
YT (IL-2 2.5 ng/mL) [23] | 5.65 | 4 | 10.3 | 27.9 | 94
[1] | 6.59 | 2.98 | 3.43 | 27.4 | 91.5
[17] | -2.38 | 3.58 | -5.48 | 24.1 | 67.8
[19] | -15 | -8.59 | -3.23 | 28.3 | 70.2
[20] | -2.12 | 3.72 | -4.74 | 17.4 | 59.6
[21] | -5.56 | -0.72 | -0.67 | -4.14 | 48.2

Settings | drug sensitivity score
DERL-7 (IL-2 2.5 ng/mL) [5] | 11.4
IMC-1 (IL-2 20 ng/mL) [14] | 13.3
KAI3 (IL-2 2.5 ng/mL) [9] | 13.7
KHYG-1 (IL-2 2.5 ng/mL) [12] | 14.9
NK-92 (IL-2 2.5 ng/mL) [13] | 8.1
NK-YS (IL-2 2.5 ng/mL) [3] | 5.99
NKL (IL-2 2.5 ng/mL) [2] | 9.05
SNK-6 (IL-2 2.5 ng/mL) [11] | 13.4
YT (IL-2 2.5 ng/mL) [10] | 8.82
[4] | 7.12
[6] | 7.7
[7] | 5.85
[8] | 2.21
[28] | 9.08
